Source: patent US10028992B2, “Methods of treating muscular dystrophy” (BOARD OF REGENTS OF THE NEVADA SYSTEM OF HIGHER EDUCATION …, priority 2012, dated 2018)

Tested on: α7 integrin promoter
Test: muscle cell-based assay: α7βgal+/− myoblasts/myotubes, LacZ reporter, β-galactosidase cleavage of FDG
Design: species or system mouse; Results in α7+/− β-galactosidase assay: scale not given here
Procedure, shortened: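 Fluorescein generated from FDG by β-galactosidase reports α7 integrin promoter activity in differentiated myoblasts from α7+/− LacZ knock-in pups. Screening hits then went to dose-response, western blotting and a myostatin counterscreen.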

| Structure (SMILES) | Results in α7+/− β-galactosidase assay (Myotubes, 0.5 uM) | Results in α7+/− β-galactosidase assay (Myotubes, 1 uM) | Results in α7+/− β-galactosidase assay (Myotubes, 5 uM) | Results in α7+/− β-galactosidase assay (Myotubes, 10 uM) | Results in α7+/− β-galactosidase assay (Myotubes, 20 uM) | Results in α7+/− β-galactosidase assay (Myotubes, 40 uM) | Results in α7+/− β-galactosidase assay (Myoblasts, 0.5 uM) | Results in α7+/− β-galactosidase assay (Myoblasts, 1 uM) | Results in α7+/− β-galactosidase assay (Myoblasts, 5 uM) | Results in α7+/− β-galactosidase assay (Myoblasts, 10 uM) | Results in α7+/− β-galactosidase assay (Myoblasts, 20 uM) | Results in α7+/− β-galactosidase assay (Myoblasts, 40 uM) |
| --- | --- | --- | --- | --- | --- | --- | --- | --- | --- | --- | --- | --- |
| Cc1[nH]c(/C=C2\C(=O)Nc3ccccc32)c(C)c1CCC(=O)O [drawing 509] | 0.04928 | 0.07615 | −0.501 | −0.6162 | −0.2542 | −0.3688 |  |  |  |  |  |  |
| Cc1cc(C)c(/C=C2\C(=O)Nc3ccccc32)[nH]1 [drawing 510] | −0.2205 | −0.08303 | −0.5223 | −0.3378 | −0.232 | −0.06918 |  |  |  |  |  |  |
| Cc1cc(C)c(/C=C2\C(=O)Nc3ccccc32)[nH]1 [drawing 512] | −0.1661 | −0.09119 | −0.3196 | 0.09661 | −0.05031 | 0.151 |  |  |  |  |  |  |
| Cc1cc(C)c(/C=C2\C(=O)Nc3ccccc32)[nH]1 [drawing 513] | −0.1009 | −0.09355 | 0.09724 | 1.02 | 0.05028 | 0.1378 |  |  |  |  |  |  |
| O=C1Nc2ccccc2/C1=C1/Nc2ccccc2/C1=N\O [drawing 514] | −0.111 | −0.1122 | −0.8688 | −1.081 | −0.5041 | −0.6481 |  |  |  |  |  |  |
| CCN(CC)CCNC(=O)c1c(C)[nH]c(CC2C(=O)Nc3ccc(F)cc32)c1C (stereo not drawn) [drawing 515] | −0.04962 | −0.02655 | −0.4387 | −1.86 | −0.9178 | 0.9191 |  |  |  |  |  |  |
| Cc1[nH]c(/C=C2\C(=O)Nc3ccc([S+](=O)([O-])Cc4c(Cl)cccc4Cl)cc32)c(C)c1C(=O)C1CCCN1CN1CCCC1 (stereo not drawn) [drawing 517] | −0.02882 | −0.08557 | 0.02824 | −0.2838 | −0.348 | −0.7868 |  |  |  |  |  |  |
| O=C1Nc2ccccc2/C1=C1/Nc2ccccc2/C1=N\O [drawing 518] | 0.09617 | 0.05181 | −0.32 | −0.625 | −0.3346 | −0.5024 |  |  |  |  |  |  |
| O=C(CNC(=O)c1cccc(F)c1)N/N=C/c1cc(Br)ccc1OCc1ccccc1 [drawing 519] |  |  |  |  |  |  | −0.00993 | 0.03356 | 0.1316 | 0.088 | −0.1376 | 0.1351 |
